Patent publication US10100061B2, “Oxazepine compound and agricultural/horticultural insecticide containing said compound as active ingredient, and method for using the same” (NIHON NOHYAKU CO., LTD., priority 2014, dated 2018)

Columns and labels:
[1] = system: Green Peach Aphid (Myzus Persicae); assay: Test of preventive value against green peach aphid (Test Example 1); format: in vivo; details: 500 ppm, sprayed over stems and leaves of potted Chinese cabbages, sixth day after spraying
Procedure: Test of Preventive Value Against Green Peach Aphid (Myzus Persicae)
Chinese cabbages were planted in plastic pots, each with a size of 8 cm in diameter and 8 cm in height, after which green peach aphids were propagated and the number of parasitic insects was examined in each pot. An oxazepine compound or salt thereof expressed by General Formula (I) according to the present invention was dispersed in water and the dispersion was diluted to 500 ppm in the form of a reagent, after which the reagent was sprayed over stems and leaves of potted Chinese cabbages and let dry under wind, and the pots were kept in a greenhouse, and on the sixth day after the reagent was sprayed, the number of green peach aphids living parasitically on each Chinese cabbage was examined and the preventive value was calculated based on the formula below, and judgment was made according to the criteria below. Preventive value=100−{(T×Ca)/(Ta×C)}×100 [Mathematical Formula 1] • Ta: Number of parasitic insects inside the treatment area before spraying • T: Number of parasitic insects inside the treatment area after spraying • Ca: Number of parasitic insects inside the non-treatment area before spraying • C: Number of parasitic insects inside the non-treatment area after spraying Judgment Criteria • A - - - Preventive value: 100% • B - - - Preventive value: 99%˜90% • C - - - Preventive value: 89%˜80% • D - - - Preventive value: 79%˜50%

[2] = system: Small Brown Planthopper (Laodelphax Striatellus); assay: Test of insecticidal efficacy against small brown planthopper (Test Example 2); format: in vivo; details: 500 ppm, rice plants soaked 30 seconds, third-instar larvae, eight days after inoculation; criteria same as in Test Example 1
Source text: Test of Insecticidal Efficacy Against Small Brown Planthopper (Laodelphax Striatellus)

Compound	Preventive value, judgment [1]	Corrected insect mortality, judgment [2]
CCOCN1C(=O)c2nn(-c3cccnc3)cc2Oc2cc(F)ccc21 [8-26]	A to D	A to D
O=C1OCCC1N1C(=O)c2nn(-c3cccnc3)cc2Oc2cc(F)ccc21 (stereo not drawn) [8-31]	A to D	A to D
CC(C(=O)OC(C)(C)C)N1C(=O)c2nn(-c3cccnc3)cc2Oc2cc(F)ccc21 (stereo not drawn) [8-32]	A to D	A to D
O=C1c2nn(-c3cccnc3)cc2Oc2cc(F)ccc2N1CCCCBr [8-34]	A to D	A to D
C=CCN1C(=O)c2nn(-c3cccnc3)cc2Oc2ccc(F)cc21 [8-35]	A to D	A to D
CCCCCCCCCCCCN1C(=O)c2nn(-c3cccnc3)cc2Oc2ccc(F)cc21 [8-37]	A to D	A to D
O=C1c2nn(-c3cccnc3)cc2Oc2ccc(F)cc2N1CCCl [8-38]	A to D	A to D
O=C1c2nn(-c3cccnc3)cc2Oc2ccc(F)cc2N1CCCCBr [8-40]	A to D	A to D
O=C1c2nn(-c3cccnc3)cc2Oc2ccc(F)cc2N1CC1CCCO1 (stereo not drawn) [8-41]	A to D	A to D
COC(CN1C(=O)c2nn(-c3cccnc3)cc2Oc2ccc(F)cc21)OC [8-42]	A to D	A to D
COCN1C(=O)c2nn(-c3cccnc3)cc2Oc2ccc(F)cc21 [8-45]	A to D	A to D
CCOCN1C(=O)c2nn(-c3cccnc3)cc2Oc2ccc(F)cc21 [8-46]	A to D	A to D
CS(=O)(=O)CN1C(=O)c2nn(-c3cccnc3)cc2Oc2ccc(F)cc21 [8-49]	A to D	A to D
O=C1Nc2cc(Cl)ccc2Oc2cn(-c3cccnc3)nc21 [8-54]	A to D	A to D
C#CCN1C(=O)c2nn(-c3cccnc3)cc2Oc2ccc(Cl)cc21 [8-56]	A to D	A to D
O=C1Nc2cc(Br)ccc2Oc2cn(-c3cccnc3)nc21 [8-62]	A to D	A to D
CN1C(=O)c2nn(-c3ccc[n+]([O-])c3)cc2Oc2ccccc21 [9-1]	A to D	A to D
O=C1Nc2ccccc2Oc2c1nn(-c1cccnc1)c2F [9-3]	A to D	A to D

Compound	Preventive value, judgment [1]	Corrected insect mortality, judgment [2]
ClC1=Nc2ccccc2Oc2cn(-c3cccnc3)nc21 [11-1]	A to D	A to D
NC1=Nc2ccccc2Oc2cn(-c3cccnc3)nc21 [11-5]	A to D	A to D
c1cncc(-n2cc3c(n2)C(NC2CC2)=Nc2ccccc2O3)c1 [11-7]	A to D	A to D
ONC1=Nc2ccccc2Oc2cn(-c3cccnc3)nc21 [11-9]	A to D	A to D
CN(C)C1=Nc2ccccc2Oc2cn(-c3cccnc3)nc21 [11-10]	A to D	A to D
C=CCN(CC=C)C1=Nc2cc(F)ccc2Oc2cn(-c3cccnc3)nc21 [11-11]	A to D	A to D
CSCCOC1=Nc2ccc(C(F)(C(F)(F)F)C(F)(F)F)cc2Oc2cn(-c3cccnc3)nc21 [11-17]	A to D	A to D
CSC1=Nc2cc(F)ccc2Oc2cn(-c3cccnc3)nc21 [11-18]	A to D	A to D
CCSC1=Nc2cc(F)ccc2Oc2cn(-c3cccnc3)nc21 [11-19]	A to D	A to D
CN1C(=O)c2nn(-c3cccnc3)cc2Oc2ccncc21 [12-1]	A to D	A to D
CN1C(=O)c2nn(-c3cccnc3)cc2Oc2nccnc21 [13-1]	A to D	A to D
Cc1nn(C)c2c1N(CC#N)C(=O)c1nn(-c3cccnc3)cc1O2 [14-5]	A to D	A to D
O=C1Nc2ccccc2Oc2cn(-c3cccnc3)nc21 [Compound No. 1-1, 2-(pyridine-3-yl)-2H-benzo [b]pyrazolo [3,4-f][1,4]oxazepine-10 (9H)-one]	A to D	A to D
CN1C(=O)c2nn(-c3cccnc3)cc2Oc2ccccc21 [Compound No. 1-2, 9-methyl-2-(pyridine-3-yl)-2H-benzo [b]pyrazolo [3,4-f][1,4]oxazepine-10 (9H)-one]	A to D	A to D
CN1C(=O)c2nn(-c3cccnc3)cc2Oc2cc(F)ccc21 [Compound No. 1-11, 6-fluoro-9-methyl-2-(pyridine-3-yl)-2H-benzo [b]pyrazolo [3,4-f][1,4]oxazepine-10 (9H)-one]	A to D	A to D
N#CCN1C(=O)c2nn(-c3cccnc3)cc2Oc2cc(F)ccc21 [Compound No. 1-13, 2-(6-fluoro-10-oxo-2-(pyridine-3-yl)-2H-benzo [b]pyrazolo [3,4-f][1,4]oxazepine-9 (10H)-yl) acetonitrile]	A to D	A to D
CN1C(=S)c2nn(-c3cccnc3)cc2Oc2ccccc21 [Compound No. 2-2, 9-methyl-2-(pyridine-3-yl)-2H-benzo [b]pyrazolo [3,4-f][1,4]oxazepine-10 (9H)-thione]	A to D	A to D
Fc1ccc2c(c1)NCc1nn(-c3cccnc3)cc1O2 [Compound No. 3-6, 7-fluoro-2-(pyridine-3-yl)-9,10-dihydro-2H-benzo [b]pyrazolo [3,4-f][1,4]oxazepine]	A to D	A to D
